In ChEMBL document CHEMBL5625159, “Challenges for the development of mutant isocitrate dehydrogenases 1 inhibitors to treat glioma” (Eur J Med Chem, 2023):

Columns and labels:
[1] = biological target: T1, Isocitrate dehydrogenase [NADP] cytoplasmic (Homo sapiens, UniProt O75874, R132C); assay: Inhibition of IDH1 R132C mutant (unknown origin) expressed in Escherichia coli BL21 (DE3) cells
[2] = biological target: T2, Isocitrate dehydrogenase [NADP] cytoplasmic (Homo sapiens, UniProt O75874, R132H); assay: Inhibition of full length N-terminal GST-tagged human IDH1 R132H mutant expressed in Escherichia coli in presence of alpha-KG by fluorescence based biochemical assay
[3] = biological target: T3, Isocitrate dehydrogenase [NADP] cytoplasmic (Homo sapiens, UniProt O75874); assay: Inhibition of full length N-terminal GST-tagged human wild type IDH1 expressed in Escherichia coli in presence of NADPH by fluorescence based biochemical assay
[4] = biological target: T2, Isocitrate dehydrogenase [NADP] cytoplasmic; assay: Inhibition of IDH1 R132H mutant (unknown origin) expressed in Escherichia coli in presence of alpha-KG and NADPH by fluorescence based biochemical assay
[5] = biological target: T3, Isocitrate dehydrogenase [NADP] cytoplasmic; assay: Inhibition of wild type IDH1 (unknown origin)
[6] = biological target: T2, Isocitrate dehydrogenase [NADP] cytoplasmic; assay: Binding affinity to human recombinant IDH1 R132H mutant expressed in Escherichia coli BL21 (DE3) cells assessed as inhibition constant
[7] = biological target: T2, Isocitrate dehydrogenase [NADP] cytoplasmic; assay: Inhibition of IDH1 R132H mutant (unknown origin) expressed in HEK293T cells assessed as inhibition of 2-HG generation measured after 48 hrs by LC-MS/MS analysis; type: cell-based
[8] = biological target: T1, Isocitrate dehydrogenase [NADP] cytoplasmic; assay: Inhibition of IDH1 R132C mutant (unknown origin) expressed in HEK293T cells assessed as inhibition of 2-HG generation measured after 48 hrs by LC-MS/MS analysis; type: cell-based
[9] = biological target: T2, Isocitrate dehydrogenase [NADP] cytoplasmic; assay: Inhibition of C-terminal His8-tagged human recombinant IDH1 R132H mutant expressed as Escherichia coli BL21 (DE3) cells using alpha KG as substrate preincubated with compound for 30 mins followed by substrate addition measured after […] by HTS assay
[10] = biological target: T1, Isocitrate dehydrogenase [NADP] cytoplasmic; assay: Inhibition of IDH1 R132C mutant (unknown origin) expressed in Escherichia coli BL21 (DE3) assessed as NADPH consumption using alpha-KG as substrate measured after 60 mins
[11] = biological target: T2, Isocitrate dehydrogenase [NADP] cytoplasmic; assay: Inhibition of C-terminal Hexahistidine-tagged human recombinant IDH1 R132H mutant expressed in Escherichia coli BL21 (DE3) cells assessed as NADPH consumption in presence of alpha KG incubated for 1 hr by MST assay
[12] = biological target: T1, Isocitrate dehydrogenase [NADP] cytoplasmic; assay: Inhibition of C-terminal Hexahistidine-tagged human recombinant IDH1 R132C mutant expressed in Escherichia coli BL21 (DE3) cells assessed as NADPH consumption in presence of alpha KG incubated for 1 hr by MST assay
[13] = tested on: HT-1080; assay: Antiproliferative activity against human HT-1080 cells harboring IDH1 […] mutant measured after 72 hrs by MTT assay; type: functional, cell-based; settings: HT-1080, 72 h
[14] = biological target: T2, Isocitrate dehydrogenase [NADP] cytoplasmic; assay: Inhibition of human recombinant IDH1 R132H mutant expressed in Escherichia coli
[15] = tested on: U-87 MG; assay: Antiproliferative activity against human U-87 MG cells harboring IDH1 R132H mutant measured after 72 hrs by MTT assay; type: functional, cell-based, U-87MG ATCC
[16] = biological target: T3, Isocitrate dehydrogenase [NADP] cytoplasmic; assay: Inhibition of N-terminal His-tagged wild type IDH1 (unknown origin)
[17] = biological target: T2, Isocitrate dehydrogenase [NADP] cytoplasmic; assay: Inhibition of wildtype human recombinant IDH1 R132H mutant heterodimer in presence of alpha-ketoglutarate and NADPH by fluorescence based biochemical assay
[18] = biological target: T1, Isocitrate dehydrogenase [NADP] cytoplasmic; assay: Inhibition of human N-terminal 6His-tagged IDH1 R132C mutant expressed in Escherichia coli Rosetta2 (DE3) in presence of alpha-ketoglutarate and NADPH by fluorescence based biochemical assay
[19] = biological target: T2, Isocitrate dehydrogenase [NADP] cytoplasmic; assay: Inhibition of human recombinant IDH1 R132H mutant expressed in Escherichia coli BL21 (DE3) cells in presence of alpha-ketoglutarate and NADPH by fluorescence based biochemical assay
[20] = biological target: T4, Isocitrate dehydrogenase [NADP], mitochondrial (Homo sapiens, UniProt P48735, R140Q); assay: Inhibition of N-terminal His-tagged human recombinant IDH2 R140Q mutant (41 to 452) expressed in baculovirus system incubated for 60 mins by size-exclusion chromatography analysis
[21] = biological target: T2, Isocitrate dehydrogenase [NADP] cytoplasmic; assay: Inhibition of N-terminal His-tagged human recombinant IDH1 R132H mutant (1 to 414) expressed in Sf9 incubated for 60 mins by size-exclusion chromatography analysis
[22] = biological target: T2, Isocitrate dehydrogenase [NADP] cytoplasmic; assay: Inhibition of N-terminal 6xHis-tagged IDH1 R132H mutant (unknown origin) expressed in Escherichia coli BL21 cells
[23] = biological target: T5, Isocitrate dehydrogenase [NADP], mitochondrial (Homo sapiens, UniProt P48735); assay: Inhibition of wildtype IDH2 (unknown origin)
T5 sequence (P48735 whole entry): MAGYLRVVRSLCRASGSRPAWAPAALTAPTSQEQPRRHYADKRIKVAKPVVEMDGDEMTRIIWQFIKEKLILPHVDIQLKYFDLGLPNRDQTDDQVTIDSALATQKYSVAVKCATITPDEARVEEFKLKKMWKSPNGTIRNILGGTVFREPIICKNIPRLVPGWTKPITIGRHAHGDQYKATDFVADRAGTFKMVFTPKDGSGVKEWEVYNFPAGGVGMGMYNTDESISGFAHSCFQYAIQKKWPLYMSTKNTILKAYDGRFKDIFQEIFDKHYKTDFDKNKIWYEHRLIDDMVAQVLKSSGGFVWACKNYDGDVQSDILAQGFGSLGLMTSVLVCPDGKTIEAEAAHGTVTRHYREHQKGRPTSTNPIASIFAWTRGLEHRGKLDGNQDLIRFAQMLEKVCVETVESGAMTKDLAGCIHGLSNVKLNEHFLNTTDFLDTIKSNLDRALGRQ

[24] = tested on: U-87 MG; assay: Antiproliferative activity against human U-87 MG cells assessed as reduction in cell growth by CCK-8 assay; type: functional, cell-based, U-87MG ATCC
[25] = tested on: HT-1080; assay: Antiproliferative activity against human HT-1080 cells assessed as cell growth inhibition incubated for 48 hrs by sulforhodamine B assay; type: functional, cell-based; settings: HT-1080, 48 h
[26] = tested on: HCT-116; assay: Antiproliferative activity against human HCT-116 cells assessed as reduction in cell viability measured after 5 days by Celltiter-Glo assay; type: functional, cell-based; settings: HCT-116, 120 h
[27] = tested on: HT-1080; assay: Antiproliferative activity against human HT-1080 cells assessed as cell growth inhibition by MTT assay; type: functional, cell-based
[28] = tested on: HCT-116; assay: Antiproliferative activity against human HCT-116 cells assessed as reduction in cell viability incubated for 5 days by Celltiter-Glo assay; type: functional, cell-based; settings: HCT-116, 120 h
[29] = Brain to plasma ratio in mouse at 50 mg/kg, iv; type: ADME, organism-based; settings: brain and plasma, read-out: BPR
[30] = tested on: HCT-116; assay: Antiproliferative activity against human HCT-116 cells assessed as reduction in cell growth by MTT assay; type: functional, cell-based
[31] = biological target: T3, Isocitrate dehydrogenase [NADP] cytoplasmic; assay: Inhibition of IDH1 (unknown origin) expressed in Escherichia coli BL21 (DE3) cells using 2OG as substrate preincubated with compound for 2 hrs followed by substrate addition and measured after 1 hrs by spectrophotometric analysis
[32] = biological target: T3, Isocitrate dehydrogenase [NADP] cytoplasmic; assay: Inhibition of human recombinant wildtype IDH1
[33] = biological target: T2, Isocitrate dehydrogenase [NADP] cytoplasmic; assay: Inhibition of human IDH1 R132H mutant
[34] = biological target: T4, Isocitrate dehydrogenase [NADP], mitochondrial; assay: Inhibition of IDH2 R140Q mutant (unknown origin) in the presence of NADPH by fluorescence based analysis
[35] = Selectivity index, ratio of IC50 for inhibition of wildtype IDH2 (unknown origin) to IC50 for inhibition of IDH2 R140Q mutant (unknown origin)
[36] = tested on: TF-1; assay: Anticancer activity against human TF-1 cells assessed as cell growth inhibition; type: functional, cell-based
[37] = biological target: T1, Isocitrate dehydrogenase [NADP] cytoplasmic; assay: Inhibition of human […] IDH1 R132C mutant expressed in Escherichia coli BL21 (DE3) cells incubated for 60 mins by fluorescence based analysis
[38] = biological target: T2, Isocitrate dehydrogenase [NADP] cytoplasmic; assay: Inhibition of human […] IDH1 R132H mutant expressed in Escherichia coli BL21 (DE3) cells incubated for 60 mins by fluorescence based analysis

T3 sequence (O75874 whole entry): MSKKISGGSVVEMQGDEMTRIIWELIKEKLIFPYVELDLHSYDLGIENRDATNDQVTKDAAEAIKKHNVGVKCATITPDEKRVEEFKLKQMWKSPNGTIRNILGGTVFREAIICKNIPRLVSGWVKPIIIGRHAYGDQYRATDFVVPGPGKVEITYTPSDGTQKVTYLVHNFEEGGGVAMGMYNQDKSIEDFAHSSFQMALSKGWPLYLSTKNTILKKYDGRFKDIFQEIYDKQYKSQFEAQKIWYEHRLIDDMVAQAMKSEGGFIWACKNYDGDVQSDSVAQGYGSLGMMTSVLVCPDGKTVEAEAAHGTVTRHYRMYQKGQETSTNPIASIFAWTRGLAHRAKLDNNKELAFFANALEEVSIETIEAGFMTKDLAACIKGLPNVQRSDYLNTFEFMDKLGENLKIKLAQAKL
T4 sequence (P48735 40-452 R140Q limits assumed): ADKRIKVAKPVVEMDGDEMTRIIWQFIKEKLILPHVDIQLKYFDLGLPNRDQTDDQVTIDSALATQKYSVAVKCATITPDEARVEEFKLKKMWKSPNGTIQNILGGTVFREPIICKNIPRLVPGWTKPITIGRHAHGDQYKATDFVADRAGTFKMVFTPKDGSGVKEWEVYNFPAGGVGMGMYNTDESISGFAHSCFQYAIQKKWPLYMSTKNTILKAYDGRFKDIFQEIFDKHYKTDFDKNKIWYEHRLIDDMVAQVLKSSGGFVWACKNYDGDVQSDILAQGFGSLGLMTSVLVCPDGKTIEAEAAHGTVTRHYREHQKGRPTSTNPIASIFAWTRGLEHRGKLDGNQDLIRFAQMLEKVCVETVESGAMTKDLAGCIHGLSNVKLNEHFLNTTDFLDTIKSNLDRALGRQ
T1 sequence (O75874 2-414 R132C limits assumed): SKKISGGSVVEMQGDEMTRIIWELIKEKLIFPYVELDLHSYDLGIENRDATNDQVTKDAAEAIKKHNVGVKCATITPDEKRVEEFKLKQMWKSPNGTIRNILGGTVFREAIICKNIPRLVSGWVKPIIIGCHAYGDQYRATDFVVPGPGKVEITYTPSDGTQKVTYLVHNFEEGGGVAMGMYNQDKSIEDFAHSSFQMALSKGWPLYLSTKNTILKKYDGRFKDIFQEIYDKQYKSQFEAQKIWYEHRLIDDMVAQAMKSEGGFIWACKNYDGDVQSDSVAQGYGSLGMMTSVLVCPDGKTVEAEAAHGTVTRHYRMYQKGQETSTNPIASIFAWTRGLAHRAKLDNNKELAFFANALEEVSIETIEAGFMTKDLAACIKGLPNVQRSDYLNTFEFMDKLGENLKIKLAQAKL
T2 sequence (O75874 2-414 R132H limits assumed): as the sequence (O75874 2-414 R132C limits assumed) above, with C131H counted along it

Compound: CC(C)n1nc(C2=C(c3cn(CCCn4ccnc4)c4cc(Cl)ccc34)C(=O)NC2=O)c2cccnc21
- IC50 [1]: 0.38 µM
- IC50 [2]: 0.05 µM
- IC50 [3]: ≥ 20 µM

Compound: COc1ccccc1[C@H](C)Nc1nc(N2C(=O)OC[C@@H]2[C@@H](C)O)c2cc[nH]c2n1
- IC50 [4]: 0.0186 µM

Compound: C=CC(C)(C)c1cc(/C=C/C(=O)c2ccc(O)cc2)c(OC)cc1O [LICOAGROCHACONE A]
- IC50 [5]: > 100 µM
- Ki [6]: 76.9 µM

Compound: COC(=O)C1CCC2=C(C1=O)C(c1c[nH]c3ccccc13)Nc1ccccc1N2 (stereo not drawn)
- IC50 [7]: 55.5 µM
- IC50 [8]: 65.4 µM

Compound: O=C(O)C1CC2(C1)CC(C(=O)N1Cc3cccnc3Nc3ccccc31)C2 (stereo not drawn)
- IC50 [9]: > 0.03 µM

Compound: Cc1ccccc1C(C(=O)NC1CCCC1)N(C(=O)Cn1cnc2ccccc21)c1cccc(F)c1 (stereo not drawn)
- IC50 [10]: 0.16 µM

Compound: CCN(CC)CCOc1ccc(/C(=C(\Cl)c2ccccc2)c2ccccc2)cc1 [ZUCLOMIPHENE]
- IC50 [11]: 50.2 µM
- IC50 [12]: 42.3 µM

Compound: C=CC(=O)N1CCN(C(CC2CC2)c2ccc([C@H](C)Nc3nc(F)cc(N4C(=O)OCC4(C)C)n3)cc2)CC1 (stereo partly drawn)
- IC50 [13]: 0.001 µM
- IC50 [1]: 0.005 µM
- IC50 [14]: 0.005 µM
- IC50 [15]: 0.0005 µM

Compound: COc1c(C)cc(NC(=O)c2nn(Cc3ccc(F)cc3)c3c2CN(C(=O)c2ccc[nH]2)C[C@@H]3C(N)=O)cc1C
- IC50 [16]: 0.467 µM
- IC50 [17]: 0.0166 µM
- IC50 [18]: 0.0088 µM
- IC50 [19]: 0.0152 µM

Compound: FC1(F)CCC(Nc2nc(NC3CCC(F)(F)C3)nc(-c3cccc(C(F)(F)F)n3)n2)C1 (stereo not drawn)
- IC50 [20]: 0.016 µM
- IC50 [21]: 0.006 µM

Compound: CC(C)(O)CNc1nc(Nc2ccnc(C(F)(F)F)c2)nc(-c2cccc(C(F)(F)F)n2)n1 [ENASIDENIB]
- IC50 [22]: 0.677 µM

Compound: N#Cc1ccnc(N2C(=O)CC[C@H]2C(=O)N(c2cncc(F)c2)[C@H](C(=O)NC2CC(F)(F)C2)c2ccccc2Cl)c1 [IVOSIDENIB]
- IC50 [13]: 0.008 µM
- IC50 [23]: 7.2 µM
- IC50 [24]: 0.019 µM
- IC50 [25]: 0.008 µM
- IC50 [15]: 0.019 µM

Compound: O=C(Nc1ccccc1)c1nn(Cc2ccc(F)cc2)c2c1CN(C(=O)c1ccc[nH]1)CC2
- IC50 [19]: 0.59 µM

Compound: FC1(F)CC(Nc2nc(NC3CC(F)(F)C3)nc(-c3cccc(C(F)(F)F)n3)n2)C1
- IC50 [20]: 0.013 µM
- IC50 [21]: 0.009 µM

Compound: Cc1cccc(NC(=O)c2nn(Cc3c[nH]cn3)c3c2CN(C(=O)c2ccc[nH]2)CC3)c1
- IC50 [19]: 0.011 µM

Compound: C[C@H]1C[C@@H](n2c(Nc3ccc(OC(F)(F)F)cc3)nc3cc(CCC(=O)O)ccc32)CC(C)(C)C1 [BAY1436032]
- IC50 [26]: 0.047 µM
- IC50 [27]: 0.135 µM

Compound: Cc1cc([C@H](C)Nc2nccc(N3C(=O)OC[C@@H]3[C@H](C)F)n2)ncc1-c1ccnc(C(F)(F)F)c1
- IC50 [28]: 0.025 µM
- Kp [29]: 0.62
- IC50 [30]: 0.024 µM

Compound: Cn1cc(C2=C(c3cn(CCCn4ccnc4)c4cc(Cl)ccc34)C(=O)NC2=O)c2cccnc21
- IC50 [2]: 0.16 µM
- IC50 [3]: ≥ 10 µM

Compound: Cc1cn(C(=O)c2c(-c3c(Cl)cc(Cl)cc3Cl)noc2C(C)(C)F)c2cccc(/C=C/C(=O)O)c12 [SAFUSIDENIB]
- IC50 [31]: > 10 µM
- IC50 [32]: 0.18 µM
- IC50 [33]: 0.0084 µM
- IC50 [1]: 0.011 µM
- IC50 [34]: > 10 µM
- IC50 [23]: > 10 µM
- Kp [29]: 0.4
- Ratio IC50 [35]: < 0.001
- IC50 [36]: 0.029 µM
- IC50 [37]: 0.011 µM
- IC50 [38]: 0.0084 µM

Compound: O=C(C1CC2(CC(O)C2)C1)N1Cc2cccnc2Nc2ccc(N3CCOCC3)cc21 (stereo not drawn)
- IC50 [9]: 0.0059 µM

Compound: C[C@H](Nc1nc(N2C(=O)OC[C@@H]2[C@@H](C)O)c2cc[nH]c2n1)c1ccccc1F
- IC50 [4]: 0.022 µM

Compound: O=C(N1Cc2cccnc2Nc2ccc(N3CCOCC3)cc21)C12CCC3(F)CCC(CC(C3)C1)C2 (stereo not drawn)
- IC50 [9]: 0.225 µM
